In PMC12197453 (Viruses, 2025):

Key:
[1] = tested on: A549 cells; assay: Cytotoxicity assay (Cell Counting Kit-8) in A549 cells; assay type: cell-based; conditions: 48 h; for cytotoxicity (cell viability): 10 μM; for CC50: Cell Counting Kit-8, read-out: CC50 (50% cytotoxic concentration)
[2] = tested on: BHK-21 cells; assay: Cytotoxicity (Cell Counting Kit-8) in BHK-21 cells; assay type: cell-based; conditions: 10 μM, 48 h
[3] = tested on: 293T cells; assay: Cytotoxicity (Cell Counting Kit-8) in 293T cells; assay type: cell-based; conditions: 10 μM, 48 h
[4] = tested on: JEV-GFP replicon; assay: Inhibition of JEV-GFP replicon replication in transfected BHK-21 cells; assay type: cell-based, Japanese encephalitis virus; conditions: 48 h, BHK-21 transfectants; for NS1 gene expression of the JEV-GFP replicon (library screening): screen of 20 bioactive compounds, qRT-PCR
[5] = tested on: rJEV-EGFP; assay: Inhibition of rJEV-EGFP replication in BHK-21 cells (green fluorescence); assay type: cell-based, Japanese encephalitis virus; conditions: 10 μM, 48 h post-treatment, vs DMSO
[6] = tested on: rJEV-EGFP; assay: Inhibition of rJEV-EGFP replication in 293T cells (green fluorescence); assay type: cell-based, Japanese encephalitis virus; conditions: 10 μM, 48 h post-treatment, vs DMSO
[7] = tested on: rJEV-EGFP; assay: Inhibition of rJEV-EGFP replication in A549 cells; assay type: cell-based, Japanese encephalitis virus; conditions: for intensities of green fluorescence produced by rJEV-EGFP replication: 10 μM, vs DMSO; for intensities of green fluorescence produced by rJEV-EGFP replication / levels of the JEV NS1 gene (qRT-PCR): 48 h post-treatment, A549 cells; for SI (Selectivity Index): SI = CC50/EC50, A549 cells; for levels of the JEV NS1 gene (qRT-PCR): different concentrations
[8] = Cytotoxicity assay (Cell Counting Kit-8) in A549 cells; assay type: cell-based; conditions: human, Cell Counting Kit-8, read-out: CC50 (50% cytotoxic concentration)

| SMILES | cytotoxicity (cell viability) [1] | CC50 [1] | cytotoxicity (cell viability) [2] | cytotoxicity (cell viability) [3] | intensity of green fluorescence of JEV-GFP replicon ([4]; 10 μM, vs DMSO) | levels of the NS1 gene of JEV-GFP replicon (qRT-PCR) ([4]; 10 μM, vs DMSO) | NS1 gene expression of the JEV-GFP replicon (library screening) [4] | intensities of green fluorescence produced by rJEV-EGFP replication [5] | intensities of green fluorescence produced by rJEV-EGFP replication [6] | intensities of green fluorescence produced by rJEV-EGFP replication [7] | SI (Selectivity Index) [7] | levels of the JEV NS1 gene (qRT-PCR) [7] | CC50 at 48 h [8] | SI (Selectivity Index) ([7]; listed as quinine) |
| --- | --- | --- | --- | --- | --- | --- | --- | --- | --- | --- | --- | --- | --- | --- |
| COc1cc(NC(C(=O)N2CCc3ccc(OC(F)(F)F)cc32)c2ccc(Cl)cc2)cc(OCCCC(=O)O)c1 (stereo not shown) [JNJ-A07] | no significant cytotoxicities | 29.9 µM | no significant cytotoxicities | no significant cytotoxicities | significantly reduced | reduced | higher inhibitory effect | remarkably reduced | remarkably reduced | remarkably reduced | 2296.92 | significantly decreased | – | – |
| C#C[C@@]1(O)[C@H](O)[C@@H](CO)O[C@H]1n1ccc2c(N)ncnc21 [NITD008] | no significant cytotoxicities | 37.8 µM | no significant cytotoxicities | no significant cytotoxicities | – | reduced | higher inhibitory effect | remarkably reduced | remarkably reduced | remarkably reduced | – | significantly decreased | – | – |
| C=C[C@H]1C[N@@]2CC[C@H]1C[C@H]2[C@H](O)c1ccnc2ccc(OC)cc12 [Quinine] | no significant cytotoxicities | – | no significant cytotoxicities | no significant cytotoxicities | – | reduced | higher inhibitory effect | remarkably reduced | remarkably reduced | remarkably reduced | 282.47 | significantly decreased | 45.8 µM | 334.16 |
